Laboratory results taken from publication PMC4491176, “Caenorhabditis elegans is a useful model for anthelmintic discovery” (Nature Communications, 2015).
Like-named read-outs stand apart in the source and are kept apart here.

Columns and labels:
[1] = system: C. elegans N2; test: 96-well liquid-based dose-response (in vivo LD100), wild-type worms; details: lowest concentration with no viable animals in four of four wells, 6 days after 20 L1 worms deposited
Method: (§1) The 96-well liquid-based chemical screening assay was adapted from an established RNAi screening protocol. Briefly, saturated HB101 Escherichia coli culture was concentrated 2-fold using NGM (nematode growth media) containing 3 mg ml^−1 NaCl, 2.5 mg ml^−1 peptone, 5 μg ml^−1 cholesterol, 1 mM CaCl2, 1 mM MgSO4 and 25 mM KH2PO4. A total of 40 μl of NGM+HB101 was dispensed into each well of a 96-well plate, and chemicals were pinned into the wells using a pinning tool with a 300 nl slot volume (V&P Scientific). Approximately 20 synchronized first larval-stage (L1) worms, in 10 μl of M9 buffer (see ref. [24] for the recipe), were then added to each well. The synchronized L1s were obtained from an embryo preparation (see ref. [24] for the protocol) performed the previous day. The final concentration of dimethyl sulfoxide (DMSO) in the wells was 0.6% v/v. A dissection microscope was used to visualize the wells either 5 or 6 days post worm deposition and any obvious chemical-induced phenotypes were noted.
(§2) The 96-well liquid-based assay was also used for all follow-up dose-response experiments in this work. These experiments were carried out in quadruplicate, and the total number of worms in each well was counted 6 days after worm deposition.

[2] = system: wact-11-family resistant C. elegans mutants (RP2674, RP2698 and others); test: 96-well liquid-based dose-response (in vivo LD100), wact-11-family resistant mutants; details: liquid dose-response of resistant mutants versus N2
Method: as §1, §2

[3] = target: wild-type C. elegans complex II (Caenorhabditis elegans, UniProt O62215+P41956+Q09508+Q09545); test: biochemical; assay type: biochemical
[4] = target: C. elegans complex II with SDHC-1(R74K) missense mutation (Caenorhabditis elegans, UniProt O62215+P41956+Q09508+Q09545, R74K); test: Cell-free Complex II functional assay, mitochondria from wact-11-resistant mutants RP2674 and RP2698; assay type: biochemical; details: C. elegans, read-out: In vitro Complex II IC50
[5] = system: three nematode species, zebrafish and HEK cells; test: Grouping by phylogenetic bioactivity profile (multi-organism screening pipeline); design: key: Group 1 molecules are lethal to only one or two of the three nematode species tested, but are non-lethal to zebrafish and HEK cells.; Group 2 molecules are lethal to all three nematode species, but are non-lethal to zebrafish and human cells.; Group 3 molecule are lethal to fish or HEK cells, regardless of their nematode bioactivity profile; details: nematode selectivity and cross-species lethality group
Source text: To further characterize our 275 C. elegans-lethal molecules, we organized them into three separate groups based on their phylogenetic bioactivity profiles (Fig. 2a). Group 1 contains 102 molecules that are lethal to only one or two of the three nematode species tested, but are non-lethal to zebrafish and HEK cells. Group 2 contains 67 compounds that are lethal to all three nematode species, but are non-lethal to zebrafish and human cells. Group 3 contains the remaining 106 compounds that are lethal to fish or HEK cells, and have varied bioactivity in different nematode species. In particular, the 67 molecules in group 2 represent potentially ideal anthelmintic leads; they have activity across multiple nematode species, and appear not to affect vertebrates.

[6] = C. elegans, strain N2, SDHC residue change none, read-out: In vitro Complex II IC50

Chain of wild-type C. elegans complex II (O62215 whole entry): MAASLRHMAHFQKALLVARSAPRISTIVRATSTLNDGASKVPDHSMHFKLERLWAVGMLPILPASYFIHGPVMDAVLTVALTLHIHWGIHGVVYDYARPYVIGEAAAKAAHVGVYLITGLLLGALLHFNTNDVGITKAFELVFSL
Chain of wild-type C. elegans complex II (Q09545 whole entry): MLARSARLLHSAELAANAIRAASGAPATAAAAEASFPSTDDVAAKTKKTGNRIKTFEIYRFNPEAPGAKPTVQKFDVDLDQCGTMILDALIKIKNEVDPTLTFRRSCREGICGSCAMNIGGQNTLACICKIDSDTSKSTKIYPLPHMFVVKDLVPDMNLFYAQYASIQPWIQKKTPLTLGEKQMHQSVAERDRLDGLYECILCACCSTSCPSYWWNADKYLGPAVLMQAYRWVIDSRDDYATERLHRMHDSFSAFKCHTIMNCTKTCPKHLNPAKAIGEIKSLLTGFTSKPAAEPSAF
Chain of wild-type C. elegans complex II (Q09508 32-646): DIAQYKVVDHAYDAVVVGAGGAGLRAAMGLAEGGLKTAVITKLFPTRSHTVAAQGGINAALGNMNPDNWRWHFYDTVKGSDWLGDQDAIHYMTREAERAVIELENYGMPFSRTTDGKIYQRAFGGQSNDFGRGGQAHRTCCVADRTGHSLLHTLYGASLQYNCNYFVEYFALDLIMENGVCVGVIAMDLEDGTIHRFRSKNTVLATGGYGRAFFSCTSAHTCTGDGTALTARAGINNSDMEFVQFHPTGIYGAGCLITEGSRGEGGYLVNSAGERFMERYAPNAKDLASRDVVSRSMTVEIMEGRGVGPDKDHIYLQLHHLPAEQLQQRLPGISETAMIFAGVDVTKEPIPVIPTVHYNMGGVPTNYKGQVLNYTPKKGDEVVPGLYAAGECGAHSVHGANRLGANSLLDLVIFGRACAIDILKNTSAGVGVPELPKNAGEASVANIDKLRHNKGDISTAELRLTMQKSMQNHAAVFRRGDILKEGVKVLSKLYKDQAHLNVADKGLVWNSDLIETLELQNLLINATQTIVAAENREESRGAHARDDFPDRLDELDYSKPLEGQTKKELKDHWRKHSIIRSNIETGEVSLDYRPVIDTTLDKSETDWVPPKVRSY
Chain of wild-type C. elegans complex II (P41956 whole entry): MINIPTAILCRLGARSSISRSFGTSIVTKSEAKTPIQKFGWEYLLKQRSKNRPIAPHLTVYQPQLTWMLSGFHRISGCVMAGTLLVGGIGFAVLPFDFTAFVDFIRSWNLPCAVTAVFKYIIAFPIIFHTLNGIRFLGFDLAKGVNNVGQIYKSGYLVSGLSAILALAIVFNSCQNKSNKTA
Chain of C. elegans complex II with SDHC-1(R74K) missense mutation (O62215 whole entry): as the sequence (O62215 whole entry) above
Chain of C. elegans complex II with SDHC-1(R74K) missense mutation (P41956 whole entry R74K): as the sequence (P41956 whole entry) above, with R74K counted along it
Chain of C. elegans complex II with SDHC-1(R74K) missense mutation (Q09508 32-646): as the sequence (Q09508 32-646) above
Chain of C. elegans complex II with SDHC-1(R74K) missense mutation (Q09545 whole entry): as the sequence (Q09545 whole entry) above

SMILES	In vivo LD100 [1]	IC50 [3]	IC50 [3, 6]	other results
O=C(Nc1ccccc1)c1ccccc1I [Benodanil]	120 µM	0.186 µM		Resistance of wact-11-family resistant mutants to compound-induced lethality (in words) [2]: resist the lethality
O=C(Nc1ccccc1-c1ccc(Cl)cc1)c1cccnc1Cl [Boscalid]	>120 µM	0.549 µM		
CC1=C(C(=O)Nc2ccccc2)SCCO1 [Carboxine]	>120 µM	> 10 µM		
CC1=NS(=O)(=O)c2cc(Cl)ccc2N1 [Diazoxide]	>120 µM	> 10 µM		
Cc1occc1C(=O)Nc1ccccc1 [Fenfuran]	>120 µM	5.28 µM		
O=C(NCCc1ncc(C(F)(F)F)cc1Cl)c1ccccc1C(F)(F)F [Fluopyram]	0.469 µM	0.0018 µM		Resistance of wact-11-family resistant mutants to compound-induced lethality (in words) [2]: resist the lethality; Less inhibiting than wact-11 f and wact-11 m ([3]; C. elegans N2 complex II IC50): ~2 fold
C/C=C/CC(C)C(=O)c1c(O)c(OC)c(OC)[nH]c1=O (stereo not shown) [Harz, harzianopyridone]	>120 µM		> 10 µM	
O=C([O-])CC(=O)[O-].[Na+].[Na+] [Malonate, disodium malonate]	>120 µM		4900 µM	IC50 ([4]; strain RP2674, SDHC R74K): 4200 µM; IC50 ([4]; strain RP2698, SDHC R74K): 4200 µM
O=C(CC(=O)C(F)(F)F)c1cccs1 [TTFA, thenoyltrifluoroacetone]	>120 µM		> 10 µM	
Cc1nc(C(F)(F)F)c(C(=O)Nc2c(Br)cc(OC(F)(F)F)cc2Br)s1 [Thifluzamide]	>120 µM	3.82 µM		
Cc1ccc(SCCNC(=O)c2ccccc2I)cc1 [wact-12c]	>120 µM		0.133 µM	
CCCCCNC(=O)c1ccccc1SC [wact-127]				Group # (Bioactivity Group #) [5]: 2
